According to article PMC3744530, “CTA095, a Novel Etk and Src Dual Inhibitor, Induces Apoptosis in Prostate Cancer Cells and Overcomes Resistance to Src Inhibitors” (PLoS ONE, 2013):

Tests used:
[1] = molecular target: Abl (Homo sapiens, UniProt P00519); experiment: Kinase inhibition assay (TLC); assay type: biochemical
Experimental: (§1) Kinase inhibition was measured using thin-layer-chromatography (TLC). Briefly, purified kinases (20 nM), the corresponding substrate (500 µM, TSFYGRH for Etk, YIYGSFK for the other kinases), and CTA095 (0–10 µM) were incubated in a kinase reaction (100 mM Hepes, pH 7.4, 10 mM MnCl2, 10 mM MgCl2, 1 mM DTT) for 5 min, and the reaction was started by adding 5 μCi ^33P-labeled ATP. The reaction (10 µl) was incubated at room temperature for 1 h and was stopped by adding 10 μL H3PO4. The radioactivity of the peptide substrate was analyzed using TLC as previously described.
(§2) In addition to the Btk family tyrosine kinases, the inhibitory activity of CTA095 to other kinases, including Lyn, Axl, Mer, EGFR, and Abl, was investigated using a TLC assay.

[2] = molecular target: Axl (Homo sapiens, UniProt P30530); experiment: Kinase inhibition assay (TLC); assay type: biochemical
Experimental: as §1, §2

[3] = molecular target: EGFR (Homo sapiens, UniProt P00533); experiment: Kinase inhibition assay (TLC); assay type: biochemical
Experimental: as §1, §2

[4] = molecular target: Itk (Homo sapiens, UniProt Q08881); experiment: Kinase inhibition assay (TLC); assay type: biochemical
Experimental: as §1, §2

[5] = molecular target: Lyn (Homo sapiens, UniProt P07948); experiment: Kinase inhibition assay (TLC); assay type: biochemical
Experimental: as §1, §2

[6] = molecular target: T1, Mer (Homo sapiens, UniProt Q12866); experiment: Kinase inhibition assay (TLC); assay type: biochemical
T1 construct: purchased Millipore Inc (Dundee, UK)
Experimental: as §1, §2

[7] = test system: Etk phosphorylation in PC3-Etk cells; experiment: Western blot of Etk phosphorylation in intact cells; assay type: cell-based, human; settings: 5 μM and 10 μM, 24 h
Experimental: (§3) Western blotting was performed as described previously. Proteins were detected using the following antibodies: β-actin (Sigma-Aldrich, Saint Louis, MO), Etk (Santa Cruz Inc., Santa Cruz, CA), pEtk; Src, pSrc; Stat3, pStat3. For phospho-Etk, cells were pre-treated with 100 μM pervanadate for 15 min before harvest.
(§4) Figure 4 Inhibition of cell signaling in PC3 cells following treatment with CTA095. Cells were grown in 10 mm plate to 50% confluence and treated with CTA095. Cells were harvested after 24 h. pEtk, Etk, pSrc, Src, pStat3, Stat3, pAkt and Akt levels were measured using the corresponding antibodies by Western blot. One of three similar experiments depicted.

[8] = test system: Akt phosphorylation in PC3 cells; experiment: Western blot of Akt phosphorylation; assay type: cell-based, human; settings: 24 h
Experimental: as §3, §4

[9] = test system: PC3 cells; experiment: Flow cytometry: PI staining and Annexin V-FITC apoptosis; assay type: cell-based, human; settings: PC3, 24 h
Experimental: PC3 cells were treated with 0.1% DMSO (control) and CTA095 at the indicated concentrations for 24 h. Cell cycle arrest was determined by the incorporation of propidium iodide (Sigma-Aldrich) into permeabilized cells. Cells undergoing apoptosis were identified using an Annexin V-FITC kit (Abcam), following the manufacturer's instructions. The cells were analyzed using a Coulter Epics XL flow cytometer (Beckman Coulter, Miami, FL).
Figure 7 Induction of apoptosis of PC3 cells following treatment with CTA095. PC3 cells were seeded at 10^6 cells/ml (2 ml) in a 6-well plate overnight and then treated with CTA095 at the indicated concentrations for 24 h. Cell cycle arrest was analyzed using PI staining (A). Apoptosis was analyzed using Annexin-V FITC apoptosis detection kit (B). Caspase 9 activation was measured using western blot (D). For caspase 3/7 activity, PC3 cells were seeded at 5000 cells/well in 96 well plate overnight and treated with CTA095 at 0–10 μM for 24 h. Caspase-3/7 activities were measured using the Apo-ONE Homogeneous Caspase-3/7 Assay kit (Promega, Madison, WI) according to the manufacturer's instruction. Columns, mean; bars, standard deviation, n = 3. […] TEXT PRINTED IN THE PICTURE: (A) CTA095: 4.3% (0 μM); 6.9% (5 μM); 44.0% (10 μM) DOUBTS OF THE COPYIST ABOUT THIS PICTURE: Panel A prints no substance label. […]

[10] = test system: caspase 9 in PC3 cells; experiment: Caspase 9 activation (Western blot); assay type: cell-based, human; settings: PC3, 0–10 μM, 24 h
Experimental: For caspase 3/7 activities, PC3 cells were seeded at 5,000 cells/well in 96-well plate overnight. Then the cells were treated with 0–10 μM CTA095 for 24 h. Caspase-3/7 activities were measured using the Apo-ONE Homogeneous Caspase-3/7 Assay kit (Promega, Madison, WI) according to the manufacturer's instruction. For caspase 9 activity, PC3 cells were seeded in 10 mm tissue culture plate and grew to 50% confluence. Cells were then treated with 0–10 μM CTA095 for 24 h. Cells were harvested and caspase 9 activity was measured using a Western blot with an anti-caspase 9 antibody.
Figure 7 Induction of apoptosis of PC3 cells following treatment with CTA095. PC3 cells were seeded at 10^6 cells/ml (2 ml) in a 6-well plate overnight and then treated with CTA095 at the indicated concentrations for 24 h. Cell cycle arrest was analyzed using PI staining (A). Apoptosis was analyzed using Annexin-V FITC apoptosis detection kit (B). Caspase 9 activation was measured using western blot (D). For caspase 3/7 activity, PC3 cells were seeded at 5000 cells/well in 96 well plate overnight and treated with CTA095 at 0–10 μM for 24 h. Caspase-3/7 activities were measured using the Apo-ONE Homogeneous Caspase-3/7 Assay kit (Promega, Madison, WI) according to the manufacturer's instruction. Columns, mean; bars, standard deviation, n = 3. […]

[11] = test system: pEtk, pSrc, pSTAT3, Myc and BCL2 in PC3-AZD20 cells; experiment: Western blot of pEtk, pSrc, pStat3, Myc and BCL2; assay type: cell-based, human; settings: PC3-AZD20, 10 μM
Experimental: PC3-AZD20 cells were seeded at 10^6 cells/well in 6 well plates overnight. The cells were treated with AZD0530 or CTA095 at 10 μM. Apoptosis was analyzed using Annexin-V FITC apoptosis detection kit. The mRNA levels of Myc and BCL2 were measured using real-time PCR. pEtk, Etk, pSrc, Src, pStat3, Stat3, Myc and BCL2 levels were measured using the corresponding antibodies through a Western blot.
Figure 12 CTA095 induces apoptosis in Src inhibitor resistant prostate cancer cells through Myc and BCL2 inhibition. PC3-AZD20 (PC3 cell resistant to 20 μM AZD0530) cells were seeded at 10^6 cells/well in 6 well plates overnight. The cells were treated with AZD0530 or CTA095 at 10 μM. Apoptosis was analyzed using Annexin-V FITC apoptosis detection kit (A). The mRNA levels of Myc and BCL2 were measured using real-time PCR (B). pEtk, Etk, pSrc, Src, pStat3, Stat3, Myc and BCL2 levels were measured using the corresponding antibodies through Western blot (C). Columns, mean; bars, standard deviation, n = 3.

Sequence of Itk (Q08881 whole entry, species assumed): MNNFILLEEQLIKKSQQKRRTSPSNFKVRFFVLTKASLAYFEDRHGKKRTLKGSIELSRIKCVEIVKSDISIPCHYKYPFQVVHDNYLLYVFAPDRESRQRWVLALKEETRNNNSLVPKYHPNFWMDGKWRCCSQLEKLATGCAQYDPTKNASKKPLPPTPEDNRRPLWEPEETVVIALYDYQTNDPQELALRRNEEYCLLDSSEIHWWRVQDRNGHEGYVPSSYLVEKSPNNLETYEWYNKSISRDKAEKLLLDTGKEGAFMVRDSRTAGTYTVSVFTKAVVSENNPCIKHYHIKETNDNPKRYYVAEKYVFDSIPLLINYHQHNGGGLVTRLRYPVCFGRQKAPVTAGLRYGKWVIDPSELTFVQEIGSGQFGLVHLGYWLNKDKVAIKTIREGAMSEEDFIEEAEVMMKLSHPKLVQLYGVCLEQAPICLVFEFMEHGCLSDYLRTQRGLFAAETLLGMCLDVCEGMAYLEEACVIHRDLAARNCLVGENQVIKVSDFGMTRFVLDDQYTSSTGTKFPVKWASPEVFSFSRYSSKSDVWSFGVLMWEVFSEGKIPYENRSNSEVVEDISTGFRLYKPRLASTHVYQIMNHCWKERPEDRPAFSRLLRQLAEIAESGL
Sequence of Lyn (P07948 whole entry, species assumed): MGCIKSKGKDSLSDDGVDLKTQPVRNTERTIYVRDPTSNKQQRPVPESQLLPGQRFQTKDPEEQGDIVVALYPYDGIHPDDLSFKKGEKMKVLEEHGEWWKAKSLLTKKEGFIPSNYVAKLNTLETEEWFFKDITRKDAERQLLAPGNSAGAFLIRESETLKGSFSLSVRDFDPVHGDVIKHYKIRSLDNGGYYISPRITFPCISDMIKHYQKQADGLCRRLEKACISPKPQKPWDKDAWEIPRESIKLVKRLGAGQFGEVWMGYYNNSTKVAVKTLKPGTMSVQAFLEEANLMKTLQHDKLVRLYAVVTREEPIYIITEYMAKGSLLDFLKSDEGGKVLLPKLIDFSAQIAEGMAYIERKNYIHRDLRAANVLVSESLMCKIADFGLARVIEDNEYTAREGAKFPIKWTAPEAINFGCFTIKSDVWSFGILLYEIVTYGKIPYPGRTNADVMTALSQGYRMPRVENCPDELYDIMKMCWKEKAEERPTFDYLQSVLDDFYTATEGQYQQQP
Sequence of EGFR (P00533 25-1210, species assumed): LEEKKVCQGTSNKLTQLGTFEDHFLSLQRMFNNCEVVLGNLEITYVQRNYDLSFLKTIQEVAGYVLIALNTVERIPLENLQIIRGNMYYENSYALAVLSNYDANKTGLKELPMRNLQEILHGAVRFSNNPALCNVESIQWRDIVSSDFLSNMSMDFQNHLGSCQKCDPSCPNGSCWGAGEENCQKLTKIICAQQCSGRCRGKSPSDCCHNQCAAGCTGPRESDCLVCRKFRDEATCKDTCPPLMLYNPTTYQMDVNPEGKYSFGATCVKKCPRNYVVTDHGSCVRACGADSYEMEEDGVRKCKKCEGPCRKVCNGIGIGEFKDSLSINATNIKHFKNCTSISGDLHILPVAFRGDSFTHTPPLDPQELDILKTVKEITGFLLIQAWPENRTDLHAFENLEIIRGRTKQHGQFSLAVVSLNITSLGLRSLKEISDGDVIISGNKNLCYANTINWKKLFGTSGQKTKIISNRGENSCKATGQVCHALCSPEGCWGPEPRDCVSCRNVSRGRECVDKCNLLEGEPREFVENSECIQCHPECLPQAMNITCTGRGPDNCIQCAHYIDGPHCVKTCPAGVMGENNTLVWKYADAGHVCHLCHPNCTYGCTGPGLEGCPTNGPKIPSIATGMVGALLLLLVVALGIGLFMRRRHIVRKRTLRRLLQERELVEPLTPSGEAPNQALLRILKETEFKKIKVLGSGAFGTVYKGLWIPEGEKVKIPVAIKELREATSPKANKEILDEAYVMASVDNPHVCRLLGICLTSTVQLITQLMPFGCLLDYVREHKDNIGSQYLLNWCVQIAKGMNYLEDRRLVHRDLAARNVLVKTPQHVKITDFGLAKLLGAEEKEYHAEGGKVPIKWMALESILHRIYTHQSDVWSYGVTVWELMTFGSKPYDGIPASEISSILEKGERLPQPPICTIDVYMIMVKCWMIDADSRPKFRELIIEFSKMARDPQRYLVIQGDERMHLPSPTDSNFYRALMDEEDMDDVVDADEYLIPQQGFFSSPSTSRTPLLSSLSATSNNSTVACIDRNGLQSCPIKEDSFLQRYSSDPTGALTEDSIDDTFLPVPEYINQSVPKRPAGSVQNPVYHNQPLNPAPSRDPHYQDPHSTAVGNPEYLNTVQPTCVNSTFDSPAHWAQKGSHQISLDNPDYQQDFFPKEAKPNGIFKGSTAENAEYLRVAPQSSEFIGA
Sequence of Abl (P00519 whole entry, species assumed): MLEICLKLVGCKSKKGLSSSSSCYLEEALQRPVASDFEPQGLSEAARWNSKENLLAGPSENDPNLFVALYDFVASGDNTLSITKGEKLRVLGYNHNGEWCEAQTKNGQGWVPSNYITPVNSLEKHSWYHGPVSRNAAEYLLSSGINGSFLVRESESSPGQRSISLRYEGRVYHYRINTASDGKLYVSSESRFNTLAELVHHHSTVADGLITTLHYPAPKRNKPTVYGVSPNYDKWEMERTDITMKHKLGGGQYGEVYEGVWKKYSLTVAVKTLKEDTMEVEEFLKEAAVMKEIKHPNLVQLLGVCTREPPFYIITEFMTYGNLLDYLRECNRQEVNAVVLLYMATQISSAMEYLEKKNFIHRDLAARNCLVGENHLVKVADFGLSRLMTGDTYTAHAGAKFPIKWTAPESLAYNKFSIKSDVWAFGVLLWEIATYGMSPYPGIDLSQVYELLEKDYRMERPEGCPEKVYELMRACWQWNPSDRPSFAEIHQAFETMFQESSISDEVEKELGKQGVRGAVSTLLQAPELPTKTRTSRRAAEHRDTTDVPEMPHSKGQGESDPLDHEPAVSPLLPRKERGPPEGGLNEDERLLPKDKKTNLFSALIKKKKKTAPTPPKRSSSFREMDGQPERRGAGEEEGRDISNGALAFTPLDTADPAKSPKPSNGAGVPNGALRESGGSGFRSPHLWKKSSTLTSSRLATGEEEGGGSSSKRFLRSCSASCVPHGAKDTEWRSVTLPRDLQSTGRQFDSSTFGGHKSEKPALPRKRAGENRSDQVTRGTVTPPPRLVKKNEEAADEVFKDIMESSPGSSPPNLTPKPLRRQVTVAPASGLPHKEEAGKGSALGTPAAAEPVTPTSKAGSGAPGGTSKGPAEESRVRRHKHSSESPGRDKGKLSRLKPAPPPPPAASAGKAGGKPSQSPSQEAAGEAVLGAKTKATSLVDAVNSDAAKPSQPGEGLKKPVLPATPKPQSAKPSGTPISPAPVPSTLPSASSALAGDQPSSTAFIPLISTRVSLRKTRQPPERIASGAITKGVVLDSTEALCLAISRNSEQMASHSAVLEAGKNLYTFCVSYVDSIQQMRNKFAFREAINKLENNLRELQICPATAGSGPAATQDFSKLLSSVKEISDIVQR
T1 sequence (Q12866 21-999): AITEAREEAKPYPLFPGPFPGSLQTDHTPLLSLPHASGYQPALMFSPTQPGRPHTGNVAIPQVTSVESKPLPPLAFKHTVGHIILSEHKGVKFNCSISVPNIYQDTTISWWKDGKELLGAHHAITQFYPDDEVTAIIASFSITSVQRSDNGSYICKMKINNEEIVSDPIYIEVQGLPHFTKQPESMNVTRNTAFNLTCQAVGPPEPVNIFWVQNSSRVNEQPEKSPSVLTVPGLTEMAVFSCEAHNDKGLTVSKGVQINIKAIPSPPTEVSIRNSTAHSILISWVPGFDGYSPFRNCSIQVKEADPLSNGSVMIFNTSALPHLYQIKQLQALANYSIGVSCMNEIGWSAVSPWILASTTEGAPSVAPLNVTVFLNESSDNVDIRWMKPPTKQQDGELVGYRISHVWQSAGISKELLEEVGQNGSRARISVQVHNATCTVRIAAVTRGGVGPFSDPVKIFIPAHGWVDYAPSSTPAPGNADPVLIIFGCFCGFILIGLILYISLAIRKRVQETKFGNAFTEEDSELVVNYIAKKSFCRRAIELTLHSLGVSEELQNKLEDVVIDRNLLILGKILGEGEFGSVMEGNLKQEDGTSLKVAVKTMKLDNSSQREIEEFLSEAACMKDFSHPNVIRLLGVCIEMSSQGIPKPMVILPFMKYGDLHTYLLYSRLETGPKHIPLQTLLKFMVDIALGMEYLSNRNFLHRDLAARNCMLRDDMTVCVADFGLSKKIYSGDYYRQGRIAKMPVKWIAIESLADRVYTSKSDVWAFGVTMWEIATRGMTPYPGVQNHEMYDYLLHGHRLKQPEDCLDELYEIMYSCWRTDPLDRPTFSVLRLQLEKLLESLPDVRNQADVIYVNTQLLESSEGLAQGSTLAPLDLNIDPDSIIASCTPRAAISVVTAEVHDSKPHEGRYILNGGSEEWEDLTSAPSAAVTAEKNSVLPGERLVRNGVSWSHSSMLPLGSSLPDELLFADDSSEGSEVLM

O=c1[nH]c2cc3nc(-c4ccc5oc6ccccc6c5c4)n(CCCN4CCCCC4)c3cc2nc1-c1ccccc1 [CTA095, 2-(dibenzo[b,d]furan-2-yl)-7-phenyl-1-(3-(piperidin-1-yl)propyl)-1H-imidazo[4,5-g]quinoxalin-6(5H)-one]
IC50 [1]: > 10 µM | IC50 [2]: > 10 µM | IC50 [3]: > 10 µM | IC50 [4]: > 10 µM | IC50 [5]: > 10 µM | IC50 [6]: > 10 µM | Etk phosphorylation [7]: significantly inhibited | Akt phosphorylation [8]: inhibited | apoptosis (Annexin-V reactivity) [9]: dose-dependent increase of apoptosis | activation of caspase 9 [10]: dose dependent activation | pEtk, pSrc, pSTAT3, Myc and BCL2 protein levels [11]: all down regulated
